Test [1] concerns Allium ampeloprasum. Kind of test: Inhibition of very long chain fatty acid elongase in Allium ampeloprasum microsome using C20:0 as substrate and [14C]-malonate at 3 x 10^-9 M after 10 to 20 min by liquid scintillation counting. In kind it is microsomes.
For test [2], the system named is Allium ampeloprasum. Kind of test: Inhibition of very long chain fatty acid elongase in Allium ampeloprasum microsome using C18:0 as substrate and [14C]-malonate at 3 x 10^-9 M after 10 to 20 min by liquid scintillation counting. Format: microsomes.
Test [3] concerns Allium ampeloprasum. The experiment in a line: Inhibition of very long chain fatty acid elongase in Allium ampeloprasum microsome using C18:0 as substrate and [14C]-malonate at 3 x 10^-8 M after 10 to 20 min by liquid scintillation counting. In kind it is microsomes.
Test [4] deals with Allium ampeloprasum. Kind of test: Inhibition of very long chain fatty acid elongase in Allium ampeloprasum microsome using [14C]-malonate assessed per vial at 0.1 uM after 10 to 20 min by liquid scintillation counting. Format: microsomes.
The nature of test [5]: Inhibition of very long chain fatty acid elongase in Allium ampeloprasum microsome using C20:0 as substrate and [14C]-malonate after 10 to 20 min by liquid scintillation counting. Particulars: read-out: I50. Format: microsomes.
Test [6] deals with Allium ampeloprasum. Kind of test: Inhibition of very long chain fatty acid elongase in Allium ampeloprasum microsome using C20:0 as substrate and [14C]-malonate at 1 x 10^-7 M after 10 to 20 min by liquid scintillation counting. Format: microsomes.
Test [7] relates to Allium ampeloprasum. The experiment in a line: Inhibition of very long chain fatty acid elongase-mediated elongation to arachidic acid in Allium ampeloprasum microsome using [14C]-malonate after 10 to 20 min by liquid scintillation counting. In kind it is microsomes.
Test [8] relates to Allium ampeloprasum. Kind of test: Inhibition of very long chain fatty acid elongase in Allium ampeloprasum microsome using C18:0 as substrate and [14C]-malonate at 1 x 10^-8 M after 10 to 20 min by liquid scintillation counting. In kind it is microsomes.
Test [9] in a line: Inhibition of very long chain fatty acid elongase in Allium ampeloprasum microsome using C18:0 as substrate and [14C]-malonate after 10 to 20 min by liquid scintillation counting. In kind it is microsomes. The conditions noted are these: read-out: I50.
For test [10], the system named is Echinochloa crus-galli. Kind of test: Herbicidal activity against Echinochloa crus-galli (barnyard grass) by pot assay. Format: functional.
In test [11] the test system is Allium ampeloprasum. Kind of test: Inhibition of very long chain fatty acid elongase in Allium ampeloprasum microsome using C20:0 as substrate and [14C]-malonate at 1 x 10^-8 M after 10 to 20 min by liquid scintillation counting. Format: microsomes.
Test [12] concerns Allium ampeloprasum. The experiment in a line: Inhibition of very long chain fatty acid elongase in Allium ampeloprasum microsome using C20:0 as substrate and [14C]-malonate at 3 x 10^-8 M after 10 to 20 min by liquid scintillation counting. In kind it is microsomes.
The subject of test [13] is Allium ampeloprasum. Kind of test: Inhibition of very long chain fatty acid elongase in Allium ampeloprasum microsome using C18:0 as substrate and [14C]-malonate at 1 x 10^-7 M after 10 to 20 min by liquid scintillation counting. Format: microsomes.
The test system of test [14] is Allium ampeloprasum. Kind of test: Competitive inhibition of very long chain fatty acid elongase in Allium ampeloprasum microsome using C18:0-CoA as substrate after 10 min by Lineweaver-Burk plot analysis. In kind it is microsomes.
The subject of test [15] is Allium ampeloprasum. The experiment in a line: Inhibition of very long chain fatty acid elongase in Allium ampeloprasum microsome using C20:0 as substrate and [14C]-malonate at 1 x 10^-4 M after 10 to 20 min by liquid scintillation counting. Format: microsomes.
Test [16] deals with Allium ampeloprasum. The experiment in a line: Inhibition of very long chain fatty acid elongase in Allium ampeloprasum microsome using C18:0 as substrate and [14C]-malonate at 1 x 10^-6 M after 10 to 20 min by liquid scintillation counting. Format: microsomes.
In test [17] the test system is Allium ampeloprasum. The experiment in a line: Inhibition of very long chain fatty acid elongase in Allium ampeloprasum microsome using C18:0 as substrate and [14C]-malonate at 1 x 10^-5 M after 10 to 20 min by liquid scintillation counting. In kind it is microsomes.
For test [18], the system named is Allium ampeloprasum. The experiment in a line: Inhibition of very long chain fatty acid elongase in Allium ampeloprasum microsome using C18:0 as substrate and [14C]-malonate at 1 x 10^-4 M after 10 to 20 min by liquid scintillation counting. In kind it is microsomes.
The subject of test [19] is Allium ampeloprasum. The experiment in a line: Inhibition of very long chain fatty acid elongase in Allium ampeloprasum microsome using C20:0 as substrate and [14C]-malonate at 1 x 10^-5 M after 10 to 20 min by liquid scintillation counting. In kind it is microsomes.
In test [20] the test system is Allium ampeloprasum. The experiment in a line: Inhibition of very long chain fatty acid elongase in Allium ampeloprasum microsome using C20:0 as substrate and [14C]-malonate at 1 x 10^-6 M after 10 to 20 min by liquid scintillation counting. Format: microsomes.

Active and inactive are the calls of the source. No cut-off for these calls is given here. Bounds are passed on as bounds.

This is an account of results in ChEMBL document CHEMBL3046262, “Inhibitory Activity of Indanofan and Its Enantiomers on Biosynthesis of Very-Long-Chain Fatty Acids” (J Pestic Sci, 2005).

Take `CCC1(CC2(c3cccc(Cl)c3)CO2)C(=O)c2ccccc2C1=O` (stereo not drawn) [(RS)-INDANOFAN]: the inhibition (INH) in [1] is 8%; in test [2], 9%; in test [3] it was 49%; in test [6], 60%; in test [8], 19%; in test [11], 11%. Moreover, the inhibition (INH) was determined as 31% in test [12] and 82% in [13]. In test [4], this molecule gave an INH of 3.6 pmol. The IC50 in [5] is 0.071 µM; in test [9] it was 0.03 µM. Moreover, the inhibition (in general, how much of the control response was suppressed) in [7] amounted to 86%. The molecule further returned an ED50 in test [10] of 0.0524 KgAi/ha.
In the case of `CCC1(C[C@]2(c3cccc(Cl)c3)CO2)C(=O)c2ccccc2C1=O` [(S)-INDANOFAN], the inhibition (INH) in test [1] came out at 15%; in [2] it was 7%; in [3] it was 71%; in [6], 76%; in [8] it was 30%; in [11] it was 31%. The inhibition (INH) in test [12] turned out to be 54%; in [13] it was 93%. Besides, the IC50 in [5] was determined as 0.025 µM; in test [9], 0.017 µM. In addition, in test [14], the inhibition entry is “Active”. The molecule also came in with an ED50 in test [10] of 0.0254 KgAi/ha.
In the case of `CCC1(C[C@@]2(c3cccc(Cl)c3)CO2)C(=O)c2ccccc2C1=O` [(R)-INDANOFAN], the inhibition (INH) in test [15] was found to be 38%; in test [16], 14%; in test [6] it was 9%; in [17], 23%; in test [18] it was 25%; in test [19], 27%. In addition, the inhibition (INH) in test [20] was determined as 18%. Further, the IC50 in test [5] and in test [9] was more than 1000 µM each time. In addition, the ED50 entry in [10] was “inactive”.
